Experimental data reported in ChEMBL document CHEMBL1201862, “PubChem BioAssay data set” (2004).
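The compound was tested at five concentrations on cells cultured in 96-well plates, with a 48-hour exposure period. Abbreviation: GI50, concentration required for 50% inhibition of growth.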 Active and inactive are the calls of the source. Rule as the data show it: active = GI50 up to about 1.1 µM and inactive = higher.

Columns and labels:
Test in all cases: NCI tumour cell line growth inhibition, 48 h
SF-539 = test system: SF-539
UO-31 = test system: UO-31
SK-OV-3 = test system: SK-OV-3
HCC 2998 = test system: HCC 2998
CAKI-1 = test system: CAKI-1
SN12C = test system: SN12C
KM12 = test system: KM12
HOP-92 = test system: HOP-92
NCI-H522 = test system: NCI-H522
SW-620 = test system: SW-620
TK-10 = test system: TK-10
SK-MEL-28 = test system: SK-MEL-28
ACHN = test system: ACHN
OVCAR-5 = test system: OVCAR-5
RXF 393 = test system: RXF 393

Measured: GI50

O=S1(=O)OCCOS(=O)(=O)C1(I)I
inactive: SF-539 21.7 µM | UO-31 18.7 µM | SK-OV-3 21.9 µM | HCC 2998 20.8 µM | CAKI-1 17.3 µM | SN12C 17.5 µM | KM12 18.9 µM | HOP-92 13.7 µM | NCI-H522 18.7 µM | SW-620 16.8 µM | TK-10 27.3 µM | SK-MEL-28 19.9 µM

N=C(N)Nc1nc2cc(N)ccc2o1
inactive: SF-539 > 100 µM | UO-31 > 100 µM | SK-OV-3 > 100 µM | HCC 2998 > 100 µM | CAKI-1 > 100 µM | SN12C > 100 µM | KM12 > 100 µM | HOP-92 > 100 µM | NCI-H522 > 100 µM | SW-620 > 100 µM | TK-10 > 100 µM | SK-MEL-28 > 100 µM | ACHN > 100 µM

CCC1(N=[N+]=[N-])C(=O)Nc2cc(C)ccc2C1=O (centres undefined)
inactive: SF-539 > 100 µM | UO-31 46.7 µM | SK-OV-3 > 100 µM | HCC 2998 > 100 µM | CAKI-1 36.9 µM | SN12C 48.6 µM | KM12 > 100 µM | HOP-92 46.1 µM | NCI-H522 4.25 µM | SW-620 > 100 µM | TK-10 > 100 µM | SK-MEL-28 > 100 µM | ACHN 22.3 µM | OVCAR-5 > 100 µM

CCCC/C=C1\CCC(CN2CCCC2)C1=O (centres undefined)
inactive: SF-539 16.1 µM | UO-31 17.2 µM | SK-OV-3 28.5 µM | HCC 2998 18.7 µM | CAKI-1 > 10 µM | SN12C 17.9 µM | KM12 2.61 µM | HOP-92 12.1 µM | SW-620 2.07 µM | TK-10 2.59 µM | SK-MEL-28 15.7 µM | ACHN 6.46 µM | OVCAR-5 19.1 µM

CNC(=O)C(C)Oc1ccc(OCC2CCCCC2)cc1 (centres undefined)
inactive: RXF 393 > 100 µM | SF-539 > 100 µM | UO-31 31.7 µM | SK-OV-3 > 100 µM | SN12C > 100 µM | KM12 > 100 µM | NCI-H522 25.2 µM | TK-10 > 100 µM | SK-MEL-28 > 100 µM | ACHN > 100 µM

CC(C)(C)S(=O)OC12CC3CC(CC(C3)C1)C2 (centres undefined)
inactive: RXF 393 > 100 µM | SF-539 > 100 µM | UO-31 92 µM | SN12C > 100 µM | KM12 > 10 µM | NCI-H522 > 100 µM | SW-620 > 100 µM | TK-10 > 100 µM | SK-MEL-28 > 100 µM | ACHN > 100 µM | OVCAR-5 > 100 µM

CCCN1CN(C(C(=O)N[C@@H]2C(=O)N3C(C(=O)O)=C(C)CSC23)c2ccc(O)cc2)CSC1=S (some centres undefined)
inactive: SF-539 > 100 µM | UO-31 > 100 µM | SK-OV-3 > 100 µM | CAKI-1 > 100 µM | SN12C > 100 µM | KM12 > 100 µM | HOP-92 > 100 µM | NCI-H522 23.6 µM | SW-620 14.2 µM | TK-10 > 100 µM | SK-MEL-28 > 100 µM | ACHN > 100 µM | OVCAR-5 > 100 µM

CCc1ccccc1NC(=O)C(=O)C(C#N)c1ccccc1Cl (centres undefined)
inactive: RXF 393 > 100 µM | UO-31 > 100 µM | HCC 2998 > 100 µM | SN12C > 100 µM | KM12 > 100 µM | HOP-92 > 100 µM | SW-620 > 100 µM | TK-10 2.55 µM | SK-MEL-28 > 100 µM | ACHN > 100 µM | OVCAR-5 > 100 µM

CN1CCN(C)C1c1cccc(C2N(C)CCN2C)c1
inactive: RXF 393 > 100 µM | SF-539 > 100 µM | UO-31 > 100 µM | SK-OV-3 > 100 µM | HCC 2998 > 100 µM | SN12C > 100 µM | KM12 > 100 µM | HOP-92 > 100 µM | NCI-H522 > 100 µM | SK-MEL-28 > 100 µM | ACHN > 100 µM | OVCAR-5 > 100 µM

CC(=O)Nc1c(C)ccc2c1C(=O)c1ccccc1C2=O
inactive: RXF 393 > 100 µM | SF-539 > 100 µM | UO-31 77.1 µM | SK-OV-3 > 100 µM | HCC 2998 > 100 µM | CAKI-1 56.5 µM | SN12C > 100 µM | KM12 > 100 µM | HOP-92 > 100 µM | NCI-H522 > 100 µM | SW-620 > 100 µM | TK-10 > 100 µM | ACHN > 100 µM | OVCAR-5 > 100 µM

CC/C(=N/O)C(C)C(=O)CCC(=O)Nc1ccc(Cl)cc1 (centres undefined)
inactive: RXF 393 > 100 µM | SF-539 > 100 µM | UO-31 > 100 µM | SK-OV-3 > 100 µM | HCC 2998 > 100 µM | CAKI-1 > 100 µM | SN12C > 100 µM | KM12 > 100 µM | SW-620 > 100 µM | TK-10 > 100 µM | SK-MEL-28 > 100 µM | ACHN 68.4 µM | OVCAR-5 > 100 µM

COc1ccc(/C(=N/Nc2ccccc2)C(c2ccc(OC)cc2)C2OC(=O)c3ccccc32)cc1 (centres undefined)
inactive: RXF 393 > 10 µM | SF-539 > 100 µM | UO-31 60.7 µM | HCC 2998 > 100 µM | CAKI-1 41.9 µM | SN12C > 100 µM | NCI-H522 70.5 µM | ACHN 97.1 µM

CCOC(=O)C(NC(=O)c1ccc(/N=N/N(C)C)cc1)C(C)C (centres undefined)
inactive: SF-539 > 100 µM | UO-31 > 100 µM | SK-OV-3 > 100 µM | HCC 2998 > 100 µM | CAKI-1 > 100 µM | SN12C > 100 µM | KM12 > 100 µM | NCI-H522 > 100 µM | SW-620 > 100 µM | TK-10 54.2 µM | SK-MEL-28 > 100 µM | ACHN > 100 µM | OVCAR-5 > 100 µM

COc1cccc2c1[C@]1(O)C(O)CCCC21 (some centres undefined)
inactive: RXF 393 > 100 µM | SF-539 > 100 µM | UO-31 > 100 µM | SK-OV-3 > 100 µM | HCC 2998 > 100 µM | CAKI-1 > 100 µM | SN12C > 100 µM | KM12 > 100 µM | NCI-H522 > 100 µM | SW-620 > 100 µM | TK-10 > 100 µM | SK-MEL-28 > 100 µM | ACHN > 100 µM | OVCAR-5 > 100 µM

CCOC(=O)c1cc(OC(=O)CC)c2c(OC)ccc(OC)c2c1
inactive: RXF 393 30.5 µM | SF-539 47.2 µM | UO-31 74.1 µM | SK-OV-3 21.9 µM | HCC 2998 > 100 µM | CAKI-1 46.2 µM | SN12C 78.2 µM | KM12 42.7 µM | NCI-H522 > 100 µM | SW-620 66.5 µM | TK-10 47.1 µM | SK-MEL-28 > 100 µM | ACHN 35.2 µM | OVCAR-5 46.1 µM

CN1N=CSC12C(=O)N(c1ccc(Cl)cc1)C(=O)N2c1ccc(Cl)cc1 (centres undefined)
inactive: RXF 393 5.33 µM | SF-539 5.82 µM | UO-31 2.85 µM | SK-OV-3 3.95 µM | HCC 2998 3.33 µM | CAKI-1 3.92 µM | SN12C 3.44 µM | KM12 3.58 µM | HOP-92 3.15 µM | NCI-H522 2.05 µM | SW-620 4.52 µM | TK-10 3.84 µM | SK-MEL-28 4.4 µM | ACHN 2.77 µM
